Source: patent US12486253B2, “Therapeutics for the degradation of mutant BRAF” (C4 THERAPEUTICS, INC., priority 2021, dated 2025)
“Also recorded” adds a separate entry of the source.

Legend:
Type in all cases: cell-based
[1] = test system: A375 cells expressing the oncogenic NRAS^Q61K mutation; assay: Cellular growth over time of A375 cells expressing NRAS^Q61K
[2] = biological target: T1, BRAF class III mutant G466V (Homo sapiens, UniProt P15056, G466V); assay: Western blot of engineered HEK-293T cells expressing class III mutant G466V; details: lentivirus expression
T1 construct: host or cells: HEK-293T, lentiviral expression
T1 sequence (P15056 whole entry G466V): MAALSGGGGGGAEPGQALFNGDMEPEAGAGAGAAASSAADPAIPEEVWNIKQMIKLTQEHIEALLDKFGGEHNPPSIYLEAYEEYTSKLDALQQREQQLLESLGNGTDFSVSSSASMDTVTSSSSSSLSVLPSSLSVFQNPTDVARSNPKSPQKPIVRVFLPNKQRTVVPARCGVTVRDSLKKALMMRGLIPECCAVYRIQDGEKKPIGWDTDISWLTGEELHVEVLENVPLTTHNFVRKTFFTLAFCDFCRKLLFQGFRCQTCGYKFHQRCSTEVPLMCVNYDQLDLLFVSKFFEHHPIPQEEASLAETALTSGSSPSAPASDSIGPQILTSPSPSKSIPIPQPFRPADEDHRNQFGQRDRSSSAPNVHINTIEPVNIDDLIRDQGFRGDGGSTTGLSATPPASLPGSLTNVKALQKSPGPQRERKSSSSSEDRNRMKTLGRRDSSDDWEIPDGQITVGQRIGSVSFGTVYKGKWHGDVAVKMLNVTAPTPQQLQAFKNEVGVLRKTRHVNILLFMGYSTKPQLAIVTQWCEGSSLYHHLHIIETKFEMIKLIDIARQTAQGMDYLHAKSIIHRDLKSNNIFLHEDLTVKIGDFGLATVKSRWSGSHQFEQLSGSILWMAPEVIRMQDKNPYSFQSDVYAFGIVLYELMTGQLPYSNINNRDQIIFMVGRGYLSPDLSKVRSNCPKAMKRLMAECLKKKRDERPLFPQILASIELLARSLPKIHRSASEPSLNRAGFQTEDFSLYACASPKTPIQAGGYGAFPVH

RAF1 (a.k.a CRAF) = RAF1 (a.k.a CRAF) (Homo sapiens, UniProt P04049); assay: Global proteomics profiling, JURKAT cells; parameters: endogenous in cells; host or cells: JURKAT, ATCC TIB-152 (A12.2); details: 300 nM, 24 hours
Sequence of RAF1 (a.k.a CRAF) (P04049 whole entry): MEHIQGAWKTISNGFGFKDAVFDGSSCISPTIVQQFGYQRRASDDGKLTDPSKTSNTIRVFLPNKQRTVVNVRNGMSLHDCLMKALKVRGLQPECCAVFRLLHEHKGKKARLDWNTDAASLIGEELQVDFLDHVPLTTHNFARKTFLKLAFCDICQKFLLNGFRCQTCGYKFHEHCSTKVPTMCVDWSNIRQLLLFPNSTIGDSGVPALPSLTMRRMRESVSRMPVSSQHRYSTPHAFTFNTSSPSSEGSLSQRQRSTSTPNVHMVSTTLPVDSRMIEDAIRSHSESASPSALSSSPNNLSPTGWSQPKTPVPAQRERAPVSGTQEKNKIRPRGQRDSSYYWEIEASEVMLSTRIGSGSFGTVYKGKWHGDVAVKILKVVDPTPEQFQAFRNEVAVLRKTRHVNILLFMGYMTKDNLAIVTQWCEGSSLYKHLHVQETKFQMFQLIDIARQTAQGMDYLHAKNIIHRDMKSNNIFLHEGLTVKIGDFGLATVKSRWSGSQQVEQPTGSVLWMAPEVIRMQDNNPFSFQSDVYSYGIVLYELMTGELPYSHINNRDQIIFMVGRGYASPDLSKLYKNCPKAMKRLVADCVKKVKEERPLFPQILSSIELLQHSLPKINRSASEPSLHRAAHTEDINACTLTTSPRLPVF
Method: Each cell line was treated in duplicate with either DMSO or Compound 157 (final concentration 300 nM) for 24 hours in an incubator at 37° C. with 5% CO2. After the 24-hour incubation, cells were harvested, washed twice with PBS, and snap frozen in liquid nitrogen. Samples were re-suspended in lysis buffer [8 M urea, 50 mM HEPES (pH 8.5), 50 mM NaCl, 1× protease inhibitor cocktail] and lysed by sonication at 4° C. with 85% amplitude in a pulse setting with 30 seconds on and 30 seconds off for a total sonication time of 5 minutes. Lysates were centrifuged at maximum speed for 10 minutes at 4° C. and the supernatant collected, reduced for 1 hour at room temperature with 5 mM TCEP, and the cysteine residues were then alkylated with 15 mM iodoacetamide (room temperature, in dark, 30 minutes). Protein content was extracted by methanol-chloroform precipitation and subsequent ice-cold acetone washes. Protein pellets were resuspended in 8 M urea, 50 mM HEPES (pH 8.5) buffer and protein concentrations were measured by BCA assay. […]
For peptide tandem mass tag (TMT) labeling, 100 μg of peptides per sample was prepared at […] concentration in 200 mM HEPES (pH 8.5), 30% acetonitrile (ACN) and each the specific TMT reagent. […] TMT reporter ion intensities were quantified by extracting the signal-to-noise ratio for each. […]

p61 splice variant = biological target: T2, p61 splice variant (Homo sapiens, UniProt P15056+Q96SW2, DEL169-380/V600E); assay: Western blot of engineered HEK-293T cells expressing the p61 splice variant; details: lentivirus expression
T2 construct: host or cells: HEK-293T, lentiviral expression
T2 sequence (P15056 with tags, fused parts or gaps DEL169-380/V600E): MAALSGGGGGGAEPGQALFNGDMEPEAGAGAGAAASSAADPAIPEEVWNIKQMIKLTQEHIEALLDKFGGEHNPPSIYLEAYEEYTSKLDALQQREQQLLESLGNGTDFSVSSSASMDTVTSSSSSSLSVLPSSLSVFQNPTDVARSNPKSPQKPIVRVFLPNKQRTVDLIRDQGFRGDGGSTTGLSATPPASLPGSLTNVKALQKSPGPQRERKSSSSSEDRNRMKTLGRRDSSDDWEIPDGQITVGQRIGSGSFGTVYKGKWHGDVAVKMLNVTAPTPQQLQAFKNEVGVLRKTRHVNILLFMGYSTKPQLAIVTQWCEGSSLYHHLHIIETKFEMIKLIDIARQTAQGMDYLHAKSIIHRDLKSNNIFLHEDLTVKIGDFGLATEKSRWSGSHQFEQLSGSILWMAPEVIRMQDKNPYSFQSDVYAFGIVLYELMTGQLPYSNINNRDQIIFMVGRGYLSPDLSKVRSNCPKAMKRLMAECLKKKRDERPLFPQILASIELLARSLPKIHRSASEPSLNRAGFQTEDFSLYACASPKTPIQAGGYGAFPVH
T2 sequence (Q96SW2 whole entry, stated change not applied, canonical isoform): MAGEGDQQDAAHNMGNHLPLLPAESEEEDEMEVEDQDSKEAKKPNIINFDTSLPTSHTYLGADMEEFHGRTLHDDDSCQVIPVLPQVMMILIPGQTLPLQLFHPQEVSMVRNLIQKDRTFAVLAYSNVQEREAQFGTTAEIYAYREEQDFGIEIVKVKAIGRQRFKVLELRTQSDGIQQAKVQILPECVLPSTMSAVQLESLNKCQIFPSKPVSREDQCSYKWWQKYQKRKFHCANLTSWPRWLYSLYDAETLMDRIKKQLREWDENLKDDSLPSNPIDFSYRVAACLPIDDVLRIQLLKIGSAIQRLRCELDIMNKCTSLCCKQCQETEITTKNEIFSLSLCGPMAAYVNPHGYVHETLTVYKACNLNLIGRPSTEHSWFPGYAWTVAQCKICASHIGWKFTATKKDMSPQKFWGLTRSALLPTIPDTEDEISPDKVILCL
T2 sequence (Q16531 whole entry partner, canonical isoform): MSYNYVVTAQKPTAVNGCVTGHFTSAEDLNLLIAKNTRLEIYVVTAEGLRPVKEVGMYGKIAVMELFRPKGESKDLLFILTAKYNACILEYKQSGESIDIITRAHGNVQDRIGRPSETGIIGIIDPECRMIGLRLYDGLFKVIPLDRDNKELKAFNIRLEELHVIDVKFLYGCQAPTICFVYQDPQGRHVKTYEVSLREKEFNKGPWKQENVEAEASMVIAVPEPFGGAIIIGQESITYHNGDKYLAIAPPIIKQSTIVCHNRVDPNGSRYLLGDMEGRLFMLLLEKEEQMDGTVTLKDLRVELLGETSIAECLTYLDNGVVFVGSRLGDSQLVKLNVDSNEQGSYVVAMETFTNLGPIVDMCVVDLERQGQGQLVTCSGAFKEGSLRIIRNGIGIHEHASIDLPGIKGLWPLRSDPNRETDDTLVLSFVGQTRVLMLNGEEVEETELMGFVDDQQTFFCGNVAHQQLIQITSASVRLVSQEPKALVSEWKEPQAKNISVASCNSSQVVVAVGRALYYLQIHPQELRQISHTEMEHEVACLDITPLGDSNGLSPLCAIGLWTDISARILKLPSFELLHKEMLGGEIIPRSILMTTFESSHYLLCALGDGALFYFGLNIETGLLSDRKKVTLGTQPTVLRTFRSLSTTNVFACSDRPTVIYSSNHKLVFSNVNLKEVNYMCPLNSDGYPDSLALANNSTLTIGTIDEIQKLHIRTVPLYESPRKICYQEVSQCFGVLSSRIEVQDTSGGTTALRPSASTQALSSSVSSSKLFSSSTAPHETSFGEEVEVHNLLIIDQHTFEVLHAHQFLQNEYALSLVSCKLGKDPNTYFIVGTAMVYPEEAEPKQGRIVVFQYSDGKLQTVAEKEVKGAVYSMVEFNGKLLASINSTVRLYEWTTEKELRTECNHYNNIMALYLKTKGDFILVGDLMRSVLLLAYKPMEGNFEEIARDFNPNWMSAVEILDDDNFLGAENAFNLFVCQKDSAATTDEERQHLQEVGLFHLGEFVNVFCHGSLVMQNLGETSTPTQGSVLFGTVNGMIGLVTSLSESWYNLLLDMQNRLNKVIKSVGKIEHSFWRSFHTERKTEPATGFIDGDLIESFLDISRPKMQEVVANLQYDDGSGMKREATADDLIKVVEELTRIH

BRAF V600E [3] = biological target: T3, BRAF V600E (Homo sapiens, UniProt P15056, V600E); assay: Western blot of engineered HEK-293T cells expressing BRAF V600E; details: lentivirus expression
T3 sequence (P15056 whole entry V600E): as the sequence (P15056 whole entry G466V) above, with V466G, V600E counted along it

phospho-ERK (T202/Y204) = assay: HTRF phospho-ERK (T202/Y204) assay in A375-NRAS^Q61K cells; details: 24 hrs, mean of at least n = 3, read-out: pERK IC50
Excerpt: A375-NRAS^Q61K cells (harboring BRAF homozygous V600E mutation and NRAS homozygous Q61K mutation) were purchased from ATCC. DMEM Medium without phenol red and supplemented with L-glutamine was purchased from Corning (Corning, NY, USA). Advanced phospho-ERK (Thr202/Tyr204) HTRF assay kits were purchased from Cisbio (Bedford, MA, USA). Cell culture flasks and 384-well microplates were acquired from VWR (Radnor, PA, USA) or Corning (Corning, NY, USA).
Degradation of activated phospho-ERK (T202/Y204) protein was determined based on quantification of FRET signal using the Advanced phospho-ERK (T202/Y204) HTRF assay kit. Test compounds were added to the 384-well plate from a top concentration of 10 μM with 11 points, half log titration in duplicates. A375-NRAS^Q61K cells were added into 384-well plates at a cell density of 2000 cells per well. The plates were kept at 37° C. with 5% CO2 for 24 hours. Cells treated in the absence of the test compound were the negative control. Positive control was set by wells containing all reagents but no cells. FRET signal was acquired on EnVision™ Multilabel Reader (PerkinElmer, Santa Clara, CA, USA).

[4] = biological target: T4, BRAF class III mutation G466V (Homo sapiens, UniProt P15056, G466V); assay: Western blot of H1666 cells endogenously expressing G466V; details: 24 hours
T4 construct: cells endogenously expressing the Class III mutation G466V; host or cells: H1666
T4 sequence (P15056 2-766 G466V): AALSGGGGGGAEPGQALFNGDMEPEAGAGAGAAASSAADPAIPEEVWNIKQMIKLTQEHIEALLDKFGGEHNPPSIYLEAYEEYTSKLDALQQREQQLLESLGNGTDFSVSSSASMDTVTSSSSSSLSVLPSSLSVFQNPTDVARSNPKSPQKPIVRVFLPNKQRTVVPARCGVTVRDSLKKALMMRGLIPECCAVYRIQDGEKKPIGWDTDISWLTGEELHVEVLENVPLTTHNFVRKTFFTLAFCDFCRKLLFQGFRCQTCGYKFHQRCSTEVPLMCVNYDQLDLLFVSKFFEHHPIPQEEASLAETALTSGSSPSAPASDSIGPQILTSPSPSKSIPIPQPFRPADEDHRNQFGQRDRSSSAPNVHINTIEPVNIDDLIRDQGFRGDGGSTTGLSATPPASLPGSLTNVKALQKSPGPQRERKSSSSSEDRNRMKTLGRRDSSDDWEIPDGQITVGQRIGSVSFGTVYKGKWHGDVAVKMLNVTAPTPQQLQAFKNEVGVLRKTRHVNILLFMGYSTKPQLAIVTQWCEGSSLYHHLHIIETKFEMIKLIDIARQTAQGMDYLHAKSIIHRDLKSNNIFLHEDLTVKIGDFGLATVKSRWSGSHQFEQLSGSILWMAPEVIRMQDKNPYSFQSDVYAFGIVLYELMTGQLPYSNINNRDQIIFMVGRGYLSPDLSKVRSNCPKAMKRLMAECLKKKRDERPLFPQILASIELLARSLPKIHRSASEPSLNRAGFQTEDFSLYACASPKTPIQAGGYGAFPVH

BRAF V600E [5] = biological target: T3, BRAF V600E; assay: Western blot of BRAF V600E levels in A375 cells; parameters: host or cells: A375

`CCN(C)S(=O)(=O)Nc1ccc(F)c(Oc2ccc3ncn([C@H]4COC5(CCN(C(=O)CC6(O)CCN(c7cc8c(cc7F)c(N7CCC(=O)NC7=O)nn8C)CC6)CC5)C4)c(=O)c3c2)c1C#N` [Compound 157, (3R)-3-[6-[2-cyano-3-[[ethyl(methyl)sulfamoyl]amino]-6-fluorophenoxy]-4-oxoquinazolin-3-yl]-8-[2-[1-[3-(2,4-dioxo-1,3-diazinan-1-yl)-5-fluoro-1-methylindazol-6-yl]-4-hydroxypiperidin-4-yl]acetyl]-1-oxa-8-azaspiro[4.5]decane] was tested, and the confluency [1] was no more than 50%, the “degradation of class III mutant G466V” value [2] was “capable of degrading” and the “RAF1 (CRAF) protein level change” value (RAF1 (a.k.a CRAF)) was “unchanged”. For the same compound, the “degradation of p61 splice variant” value (p61 splice variant) was “capable of degrading”, the “degradation of BRAF V600E” value (BRAF V600E [3]) was “capable of degrading” and the IC50 (phospho-ERK (T202/Y204)) was 7.8 nM. The “phosphorylated ERK signal” value [4] was “decrease”, the “reduction in BRAF signal” value ([4]; includes any WT BRAF) was 53% and the “BRAF V600E levels” value (BRAF V600E [5]) was “significantly decreased; also recorded: decrease in a dose dependent manner”.
